Our source for the relative viability values is the supplement of paper PMC10307832.

What all share (assay): relative viability (nuclei count vs DMSO), 5 days (fraction); higher = more cells survive
Compound in one assay: O=C(/C=C/c1cccnc1)NCCCCC1CCN(C(=O)c2ccccc2)CC1 [Daporinad]
The essentials:
(§1)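 For viability, nuclei in each treated well were divided by nuclei in vehicle wells and the median across plates was taken. Lung cancer cell lines in 1536-well plates were pinned with five library-drug doses (not always all listed) spaced by √10, cultured 5 days without medium change, and imaged at 4× after Hoechst staining, with plates passing only at control CV below 25% and at least one doubling.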

Compound in another assay: COc1cc(Nc2ncc(F)c(Nc3ccc4c(n3)NC(=O)C(C)(C)O4)n2)cc(OC)c1OC [R406]
In outline:
as §1

Compound in the assay “Daporinad + Palbociclib”: O=C(/C=C/c1cccnc1)NCCCCC1CCN(C(=O)c2ccccc2)CC1 [Daporinad] + CC(=O)c1c(C)c2cnc(Nc3ccc(N4CCNCC4)cn3)nc2n(C2CCCC2)c1=O [Palbociclib] (partner 0.5 µM)
In outline:
(§2)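 Five library-drug doses in √10 steps were combined with a fixed anchor-drug dose, or a single drug was given alone, by pin tool to lung cancer cell lines in 1536-well plates the day after seeding. Nuclei were stained and counted after 5 days. Relative viability is the nuclei count in treated wells over that in vehicle wells, taken as the median of duplicate plates.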

Compound in the assay “R406 + Foretinib”: COc1cc(Nc2ncc(F)c(Nc3ccc4c(n3)NC(=O)C(C)(C)O4)n2)cc(OC)c1OC [R406] + COc1cc2c(Oc3ccc(NC(=O)C4(C(=O)Nc5ccc(F)cc5)CC4)cc3F)ccnc2cc1OCCCN1CCOCC1 [Foretinib] (partner 0.25 µM)
In outline: as §2

On to UMC-11, for which the relative viability stood at 0.963 in the assay with Daporinad (0.0005 µM); 1.07 with Daporinad (0.001581 µM); 1.03 in the assay with Daporinad (0.005 µM); 1.05 with Daporinad (0.01581 µM); 0.964 with R406 (0.08 µM); 1.15 in the assay with R406 (0.253 µM). Also, the relative viability with R406 (0.8 µM) was 1.16; in the assay with R406 (2.53 µM), 0.861; with R406 (8 µM), 0.481; with Daporinad + Palbociclib (first compound 0.0005 µM) it was 0.385; with Daporinad + Palbociclib (first compound 0.001581 µM) it was 0.338; in the assay with Daporinad + Palbociclib (first compound 0.005 µM), 0.342. The relative viability with Daporinad + Palbociclib (first compound 0.01581 µM) stood at 0.395; with R406 + Foretinib (first compound 0.08 µM), 1.11; with R406 + Foretinib (first compound 0.253 µM), 1.09; with R406 + Foretinib (first compound 0.8 µM), 0.987; in the assay with R406 + Foretinib (first compound 2.53 µM), 0.789; in the assay with R406 + Foretinib (first compound 8 µM) it was 0.499.
